Each structure is given as a SMILES string. Where only a bound is given, the exact number is not on record here.

The target of this assay is T1, human IKK-β (Homo sapiens, UniProt O14920).
T1 construct: A cDNA fragment encoding human IKK-β open reading frame was generated by PCR; His tag (from pcDNA3.1/His C); made in house; host or cells: Sf21 insect cells (baculovirus); substrate made in E. coli
T1 sequence (O14920 1-756): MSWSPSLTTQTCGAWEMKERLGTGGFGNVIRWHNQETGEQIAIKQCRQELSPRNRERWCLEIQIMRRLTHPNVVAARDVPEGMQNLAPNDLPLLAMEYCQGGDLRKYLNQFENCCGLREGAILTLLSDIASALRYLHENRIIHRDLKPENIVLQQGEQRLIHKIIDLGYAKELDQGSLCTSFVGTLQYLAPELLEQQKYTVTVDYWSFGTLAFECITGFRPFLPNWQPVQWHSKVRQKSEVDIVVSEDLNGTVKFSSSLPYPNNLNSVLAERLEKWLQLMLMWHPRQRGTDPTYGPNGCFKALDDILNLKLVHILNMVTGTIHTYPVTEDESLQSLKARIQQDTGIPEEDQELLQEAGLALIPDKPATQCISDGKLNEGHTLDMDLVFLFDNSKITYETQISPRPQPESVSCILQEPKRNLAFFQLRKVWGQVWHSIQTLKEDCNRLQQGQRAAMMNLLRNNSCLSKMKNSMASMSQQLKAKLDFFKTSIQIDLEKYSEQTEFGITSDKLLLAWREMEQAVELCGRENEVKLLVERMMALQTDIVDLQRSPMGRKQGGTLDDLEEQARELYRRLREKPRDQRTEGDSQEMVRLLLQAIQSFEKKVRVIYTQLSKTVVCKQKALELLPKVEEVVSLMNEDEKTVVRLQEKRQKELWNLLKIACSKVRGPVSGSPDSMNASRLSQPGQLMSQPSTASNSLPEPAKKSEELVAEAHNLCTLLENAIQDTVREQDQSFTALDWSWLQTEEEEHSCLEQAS
Kind of assay: IKK-β kinase inhibitory assay. The assay is classed as biochemical. As to conditions: compounds as yielded by solid phase synthesis, purity about 40 to 90%, read-out: In vitro activity grade (In vitro IC50). The procedure, abridged:
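His-tagged human IKK-β from baculovirus-infected Sf21 cells (0.6 μg/ml final) phosphorylates biotinylated GST-IκBα(1-54) (0.2 μM) in Tris-HCl pH 7.6 buffer with MgCl2. ATP with [γ-33P]ATP added, then 2 h at room temperature. Biotinylated substrate captured on streptavidin plates; bound radioactivity counted by scintillation.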
What is called IC50 is the concentration that gives 50% inhibition. On to `O=c1[nH]c2nc(-c3c(O)cccc3OCC3CC3)cc(C3CCCNC3)c2cc1[N+](=O)[O-]` (centres unmarked) [Example 25-05], for which the IC50 is < 500 nM.
Next, `N#Cc1cc2c(C3CCCNC3)cc(-c3c(O)cccc3OCC3CC3)nc2[nH]c1=O` (centres unmarked) [Example 25-06]: < 500 nM; `O=c1[nH]c2nc(-c3c(O)cccc3OCC3CC3)cc(C3CCCNC3)c2cc1S(=O)(=O)c1ccccc1` (centres unmarked) [Example 25-07]: < 500 nM.
In the case of `NC(=O)c1cc2c(C3CCCNC3)cc(-c3c(O)cccc3OCC3CC3)nc2[nH]c1=O` (centres unmarked) [Example 25-08] it was < 500 nM; in that of `CCOC(=O)C1Cc2c(C3CCCNC3)cc(-c3c(O)cccc3OCC3CC3)nc2NC1=O` (centres unmarked) [Example 26-03], < 500 nM.
In the case of `CCOC(=O)C1Cc2c(C3CCNCC3)cc(-c3c(O)cccc3OCC3CC3)nc2NC1=O` (centres unmarked) [Example 26-04] it was < 500 nM.
Take `NC(=O)C1Cc2c(C3CCCNC3)cc(-c3c(O)cccc3OCC3CC3)nc2NC1=O` (centres unmarked) [Example 26-05]: the IC50 was < 500 nM.
In the case of `CCCOc1cccc(O)c1-c1cc(C2CCCNC2)c2c(n1)NC(=O)C(C(=O)OCC)C2` (centres unmarked) [Example 26-06] it was < 500 nM; in that of `CCCOc1cccc(O)c1-c1cc(C2CCCNC2)c2c(n1)NC(=O)CC2` (centres unmarked) [Example 27-02], < 500 nM.
In the case of `O=C1CCc2c(C3CCCNC3)cc(-c3c(O)cccc3OCC3CC3)nc2N1` (centres unmarked) [Example 27-03, 7-[2-(cyclopropylmethoxy)-6-hydroxyphenyl]-5-(3-piperidinyl)-3,4-dihydro-1,8-naphthyridin-2(1H)-one], the IC50 is < 500 nM.
Next, `O=C1CCc2c(C3CCNCC3)cc(-c3c(O)cccc3OCC3CC3)nc2N1` [Example 27-04]: < 500 nM.
In the case of `CCCOc1cccc(O)c1-c1cc(C2CCNCC2)c2c(n1)NC(=O)CC2` [Example 27-05] it was < 500 nM.
Next, `CNC(=O)c1cc2c(C3CCCNC3)cc(-c3c(O)cccc3OCC3CC3)nc2[nH]c1=O` (centres unmarked) [Example 31-03]: < 500 nM; `CN(C)C(=O)c1cc2c(C3CCCNC3)cc(-c3c(O)cccc3OCC3CC3)nc2[nH]c1=O` (centres unmarked) [Example 31-04]: < 500 nM.
As to `O=C(c1cc2c(C3CCCNC3)cc(-c3c(O)cccc3OCC3CC3)nc2[nH]c1=O)N1CCCC1` (centres unmarked) [Example 31-05], the IC50 was < 500 nM.
As to `O=C(NCc1ccccc1)c1cc2c(C3CCCNC3)cc(-c3c(O)cccc3OCC3CC3)nc2[nH]c1=O` (centres unmarked) [Example 31-06], the half-maximal inhibitory concentration (IC50) is < 500 nM.
As to `COCCNC(=O)c1cc2c(C3CCCNC3)cc(-c3c(O)cccc3OCC3CC3)nc2[nH]c1=O` (centres unmarked) [Example 31-07], the IC50 was < 500 nM.
Next, `O=C(c1cc2c(C3CCCNC3)cc(-c3c(O)cccc3OCC3CC3)nc2[nH]c1=O)N1CCOCC1` (centres unmarked) [Example 31-08]: < 500 nM.
Turning to `O=C(c1cc2c(C3CCCNC3)cc(-c3c(O)cccc3OCC3CC3)nc2[nH]c1=O)N1CCNCC1` (centres unmarked) [Example 31-09], the half-inhibitory concentration (IC50) is < 500 nM.
Turning to `CC(C)NC(=O)c1cc2c(C3CCCNC3)cc(-c3c(O)cccc3OCC3CC3)nc2[nH]c1=O` (centres unmarked) [Example 31-10], the IC50 is < 500 nM.
Take `CN(C)CCNC(=O)c1cc2c(C3CCCNC3)cc(-c3c(O)cccc3OCC3CC3)nc2[nH]c1=O` (centres unmarked) [Example 31-11]: the IC50 was < 500 nM.
On to `O=C(NC1Cc2ccccc2C1)c1cc2c(C3CCCNC3)cc(-c3c(O)cccc3OCC3CC3)nc2[nH]c1=O` (centres unmarked) [Example 31-12], for which the IC50 was < 500 nM.
In the case of `O=C(NC(c1ccccc1)c1ccccc1)c1cc2c(C3CCCNC3)cc(-c3c(O)cccc3OCC3CC3)nc2[nH]c1=O` (centres unmarked) [Example 31-13] it was < 500 nM.
`C[C@H](NC(=O)c1cc2c(C3CCCNC3)cc(-c3c(O)cccc3OCC3CC3)nc2[nH]c1=O)c1ccccc1` (some centres unmarked) [Example 31-14]: the IC50 was < 500 nM.
`C[C@@H](NC(=O)c1cc2c(C3CCCNC3)cc(-c3c(O)cccc3OCC3CC3)nc2[nH]c1=O)c1ccccc1` (some centres unmarked) [Example 31-15]: the IC50 is < 500 nM.
As to `C[C@H](NC(=O)c1cc2c(C3CCCNC3)cc(-c3c(O)cccc3OCC3CC3)nc2[nH]c1=O)C(=O)O` (some centres unmarked) [Example 31-16], the IC50 was < 500 nM.
Next, `O=C(NCCc1ccccc1)c1cc2c(C3CCCNC3)cc(-c3c(O)cccc3OCC3CC3)nc2[nH]c1=O` (centres unmarked) [Example 31-17]: < 500 nM; `O=C(NC1CCCCC1)c1cc2c(C3CCCNC3)cc(-c3c(O)cccc3OCC3CC3)nc2[nH]c1=O` (centres unmarked) [Example 31-18]: < 500 nM; `O=C(NCC1CCCCC1)c1cc2c(C3CCCNC3)cc(-c3c(O)cccc3OCC3CC3)nc2[nH]c1=O` (centres unmarked) [Example 31-19]: < 500 nM.
Next, `O=C(NCCO)c1cc2c(C3CCCNC3)cc(-c3c(O)cccc3OCC3CC3)nc2[nH]c1=O` (centres unmarked) [Example 31-20]: < 500 nM; `O=C(NC1CC1)c1cc2c(C3CCCNC3)cc(-c3c(O)cccc3OCC3CC3)nc2[nH]c1=O` (centres unmarked) [Example 31-21]: < 500 nM.
In the case of `O=C(NC1CCC1)c1cc2c(C3CCCNC3)cc(-c3c(O)cccc3OCC3CC3)nc2[nH]c1=O` (centres unmarked) [Example 31-22] it was < 500 nM.
In the case of `O=C(NC1CCCC1)c1cc2c(C3CCCNC3)cc(-c3c(O)cccc3OCC3CC3)nc2[nH]c1=O` (centres unmarked) [Example 31-23], the IC50 was < 500 nM.
Turning to `O=C(NC1CCCCCC1)c1cc2c(C3CCCNC3)cc(-c3c(O)cccc3OCC3CC3)nc2[nH]c1=O` (centres unmarked) [Example 31-24], the IC50 was < 500 nM.
Consider `CCC(CC)NC(=O)c1cc2c(C3CCCNC3)cc(-c3c(O)cccc3OCC3CC3)nc2[nH]c1=O` (centres unmarked) [Example 31-25], for which the IC50 is < 500 nM.
In the case of `CCCC(CCC)NC(=O)c1cc2c(C3CCCNC3)cc(-c3c(O)cccc3OCC3CC3)nc2[nH]c1=O` (centres unmarked) [Example 31-26] it was < 500 nM.
Next, `O=C(NCC(F)(F)F)c1cc2c(C3CCCNC3)cc(-c3c(O)cccc3OCC3CC3)nc2[nH]c1=O` (centres unmarked) [Example 31-27]: < 500 nM; `N#Cc1c(N2CCCC(C(N)=O)C2)cc(-c2ccccc2O)nc1N` (centres unmarked) [Example 34-06]: 2000 to 10000 nM.
Take `N#Cc1c(NC2CCNCC2)cc(-c2ccccc2O)nc1N` [Example 34-07]: the IC50 is < 500 nM.
Turning to `N#Cc1c(N2CCCNCC2)cc(-c2ccccc2O)nc1N` [Example 34-08], the IC50 lay within 500 to 2000 nM.
Next, `N#Cc1c(N2CCNCC2)cc(-c2ccccc2O)nc1N` [Example 34-09]: < 500 nM; `N#Cc1c(NCCN)cc(-c2ccccc2O)nc1N` [Example 34-10]: < 500 nM; `N#Cc1c(NCCCN)cc(-c2ccccc2O)nc1N` [Example 34-11]: < 500 nM.
In the case of `CNCCNc1cc(-c2ccccc2O)nc(N)c1C#N` [Example 34-12] it was < 500 nM; in that of `N#Cc1c(NCCNCc2ccccc2)cc(-c2ccccc2O)nc1N` [Example 34-13], < 500 nM; in that of `N#Cc1c(NCCNCc2ccccc2)cc(-c2c(O)cccc2OCC2CC2)nc1N` [Example 34-15], < 500 nM.
Take `N#Cc1c(NCCNC(=O)c2ccccc2)cc(-c2c(O)cccc2OCC2CC2)nc1N` [Example 34-16]: the IC50 is < 500 nM.
In the case of `N#Cc1c(NCCNS(=O)(=O)c2ccccc2)cc(-c2c(O)cccc2OCC2CC2)nc1N` [Example 34-17] it was < 500 nM; in that of `N#Cc1c(NCCNC(=O)Nc2ccccc2)cc(-c2c(O)cccc2OCC2CC2)nc1N` [Example 34-18], < 500 nM.
As for `CC(=O)NCCNc1cc(-c2c(O)cccc2OCC2CC2)nc(N)c1C#N` [Example 34-19], the IC50 is < 500 nM.

The values are drawn from patent US6984649B1, “Pyridine derivatives” (Bayer Aktiengesellschaft, priority 2000, dated 2006).
